Tests used:
FAK/Paxillin = target: T1, FAK/Paxillin (Mus musculus, UniProt P34152+Q8VI36); assay: FAK/Paxillin displacement by structurally related compounds (FootLocker series, confocal microscopy); type: cell-based; design: key to Activtiy (activity towards FAK/Paxillin displacement): ++ indicates displacing effect at 5 µM; + at 20 µM; - indicates no observed effect
T1 construct: expressed in transfected cells; host or cells: mouse fibroblasts stably expressing GFP-FAK
Procedure: To determine whether compounds structurally related to Mb31 and Mb36 are likewise suitable to interfere with FAK localization at focal adhesions, mouse fibroblasts stably expressing GFP-FAK were treated for 30 min with 1, 10 or 20 µM of the following compounds: trans-3-hydroxy-β-nitrostyrene (THBN), trans-4-Chloro-β-nitrostyrene (T4CN), trans-β-nitrostyrene (TBN), 4-chlorocinnamic acid (4CA), and trans-3-(4-bromothiophen-2-yl)acrylic acid (T34BA) (Figures 16 and 17). The cells were analyzed by confocal microscopy for GFP-FAK localization. DMSO treatment served as a vehicle control. […] Additional substituents at the aromatic structures, such as halogen atoms or hydroxy groups may contribute to the reactivity of the compound, but are not essential. Based on these findings, the inventors have extended their structure activity-relationship studies and synthesized additional related compounds, which, similar to Mb31, displace FAK and paxillin at concentrations below 10µM (++), displace FAK and paxillin at concentrations above 10 µM (+), or lack FAK and paxillin displacing activity (-). All these substances were then also nicknamed in the FLocker terminology, resulting in FLocker1 - FLocker24 (Table 2). Table 2: Overview of FootLocker nomenclature, their chemical notation/structure and the activity towards FAK/Paxillin displacement

[1] = test system: MDA-MB-231 breast cancer cells; assay: In vitro wound healing assay; type: cell-based, human; settings: 3 µM, 25 h, serum-containing growth medium
Procedure: Image J was used to automatically quantify FAK-containing focal adhesions due to local maxima of fluorescence intensity in the GFP-channel (5 to 70 pixel). The number of cells was automatically counted in the Hoechst channel. To test reproducibility of the system 40 control wells were quantified wherein four positions for each well were imaged. […] GFP-FAK mouse embryonic fibroblasts were seeded on fibronectin and incubated for 1 h with the indicated concentrations of the small compounds, respectively. […] GFP-FAK mouse embryonic fibroblasts were seeded on fibronectin and serum-starved overnight. The indicated concentrations of Mb31 were applied for 30 min. Cells were lysed and analyzed for paxillin and FAK protein level as well as FAK Tyr397 phosphorylation. […] The purified kinase domain of FAK was incubated with increasing amounts of Mb31 for 1 h at 30°C together with poly-Glu-Tyr as a FAK substrate. […] Serum-starved GFP-FAK mouse embryonic fibroblasts were stimulated with normal growth medium and incubated for 5 h with the indicated concentrations of the small molecule compounds, respectively. Cell viability was assessed by MTT assay. […] GFP-FAK MEFs were seeded on fibronectin and serum-starved overnight. Migration was stimulated by replacing the medium with normal growth medium. Migration of single cells was tracked for 8 h in 30 min intervals. Migration was recorded from cells that were cultured without serum (A), with serum (B) or with serum in the presence of 3 µM Mb31 (C). […] (A) GFP-FAK MEFs were seeded and serum-starved as in Figure 10. Cell migration was stimulated with normal growth medium and single cells were tracked for 5 h. (B) Mb31 was added and the same cells were tracked for additional 5 h. (C) Mean velocities of differently treated cells were plotted over time. […] NIH-v-Src fibroblasts were seeded on 2 µg/ml FN in DMEM/0.5%BSA and stimulated with 10 ng/ml EGF or kept unstimulated. […] Mouse embryonic fibroblasts (MEFs) were transfected with talin-mCherry and talin dynamics analyzed in focal adhesions using fluorescence recovery after photobleaching (FRAP). Cells were left untreated (A) or treated with 10 µM of Mb31 (B). In untreated cells, the mCherry intensity recovered, indicating replacement of bleached by non-bleached talin and therefore turnover of talin at focal adhesions. […] (C) Wound closure was microscopically analyzed and evaluated using ImageJ software.
To determine if the migration of transformed cells can be blocked by FLocker1 and related compounds, human breast carcinoma cells (MDA-MB-231) were used in in vitro wound healing assays. […] The ability of the cells to migrate and close the wound space was monitored by microscopy and quantified (Figure 18B and C).

T1 sequence (P34152 whole entry): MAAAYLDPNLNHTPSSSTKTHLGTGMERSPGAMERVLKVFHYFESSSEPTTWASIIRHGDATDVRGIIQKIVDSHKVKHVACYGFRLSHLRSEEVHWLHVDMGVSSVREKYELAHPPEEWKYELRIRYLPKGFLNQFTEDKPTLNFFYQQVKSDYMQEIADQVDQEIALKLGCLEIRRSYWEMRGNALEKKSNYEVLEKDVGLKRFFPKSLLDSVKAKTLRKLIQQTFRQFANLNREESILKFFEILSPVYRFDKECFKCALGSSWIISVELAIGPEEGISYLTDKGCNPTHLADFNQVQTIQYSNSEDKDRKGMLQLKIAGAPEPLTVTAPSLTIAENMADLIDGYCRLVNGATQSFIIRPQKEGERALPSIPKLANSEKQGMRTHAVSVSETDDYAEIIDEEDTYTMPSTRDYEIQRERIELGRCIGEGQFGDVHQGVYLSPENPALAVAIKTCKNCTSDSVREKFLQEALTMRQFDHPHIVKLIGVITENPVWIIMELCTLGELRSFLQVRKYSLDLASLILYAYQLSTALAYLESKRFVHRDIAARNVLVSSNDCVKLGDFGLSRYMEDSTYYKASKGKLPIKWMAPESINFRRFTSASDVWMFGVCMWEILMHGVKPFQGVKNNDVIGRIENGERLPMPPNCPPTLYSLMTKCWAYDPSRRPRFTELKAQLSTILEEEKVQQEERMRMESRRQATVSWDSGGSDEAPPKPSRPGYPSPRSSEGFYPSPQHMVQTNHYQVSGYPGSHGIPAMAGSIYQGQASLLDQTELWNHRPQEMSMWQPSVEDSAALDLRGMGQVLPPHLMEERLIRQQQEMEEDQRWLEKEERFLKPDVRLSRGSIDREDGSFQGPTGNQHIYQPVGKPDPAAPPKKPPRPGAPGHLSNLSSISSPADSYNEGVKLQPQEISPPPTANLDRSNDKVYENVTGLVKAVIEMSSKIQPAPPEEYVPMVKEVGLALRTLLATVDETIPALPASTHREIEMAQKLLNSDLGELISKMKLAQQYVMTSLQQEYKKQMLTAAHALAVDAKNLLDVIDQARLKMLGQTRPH
T1 sequence (Q8VI36 whole entry): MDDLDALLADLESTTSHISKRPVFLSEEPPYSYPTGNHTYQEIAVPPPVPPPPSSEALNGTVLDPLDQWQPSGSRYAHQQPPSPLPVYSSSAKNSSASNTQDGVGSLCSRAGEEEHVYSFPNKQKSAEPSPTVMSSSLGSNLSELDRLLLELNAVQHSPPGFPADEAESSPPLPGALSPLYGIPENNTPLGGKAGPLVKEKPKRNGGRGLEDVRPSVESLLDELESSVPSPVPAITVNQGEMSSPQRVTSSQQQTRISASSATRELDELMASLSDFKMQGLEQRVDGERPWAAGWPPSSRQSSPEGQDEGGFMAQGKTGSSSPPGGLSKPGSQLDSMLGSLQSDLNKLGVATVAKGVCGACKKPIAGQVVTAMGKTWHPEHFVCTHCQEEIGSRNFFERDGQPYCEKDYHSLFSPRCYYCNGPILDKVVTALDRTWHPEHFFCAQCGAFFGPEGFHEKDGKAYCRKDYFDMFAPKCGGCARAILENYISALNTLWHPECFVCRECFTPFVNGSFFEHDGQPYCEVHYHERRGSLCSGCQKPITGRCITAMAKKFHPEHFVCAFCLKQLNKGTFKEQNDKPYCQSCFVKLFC

| Compound | Activtiy (activity towards FAK/Paxillin displacement) (FAK/Paxillin) | disruption of protein-protein interactions at focal adhesion site (FAK/Paxillin) | further results |
| --- | --- | --- | --- |
| O=C(O)/C=C/c1cc(Br)cs1 [compound 24] | - |  |  |
| C/C(=C\c1ccccc1)[N+](=O)[O-] [FootLocker 15, (E)-(2-nitroprop-1-en 1-yl)benzene] |  | efficiently disrupt protein-protein interactions at focal adhesion site |  |
| C/C(=C\c1ccc(Br)cc1)[N+](=O)[O-] [FootLocker 16, 1-bromo-4-[(1E)-2-nitro-1-propenyl]benzene] |  | efficiently disrupt protein-protein interactions at focal adhesion site | compounds showing the most prominent effect on protein-protein interactions at focal adhesion site (FAK/Paxillin): most prominent effect |
| O=[N+]([O-])/C=C/c1cccc([N+](=O)[O-])c1 [FootLocker 13, (E)-1-nitro-3-(2-nitrovinyl)benzene] |  | efficiently disrupt protein-protein interactions at focal adhesion site | compounds showing the most prominent effect on protein-protein interactions at focal adhesion site (FAK/Paxillin): most prominent effect |
| O=[N+]([O-])/C=C/c1ccccc1F [compound 9] | ++ (++ indicates displacing effect at 5 µM) |  |  |
| O=[N+]([O-])/C=C/c1cccc(Cl)c1 [compound 12] | + (+ at 20 µM) |  |  |
| O=[N+]([O-])/C=C/c1ccccc1F [FootLocker 9, (E)-1-fluoro-2-(2-nitrovinyl) benzene] |  | efficiently disrupt protein-protein interactions at focal adhesion site | compounds showing the most prominent effect on protein-protein interactions at focal adhesion site (FAK/Paxillin): most prominent effect; migration of cancer cells / wound closure [1]: retarded the migration of the cancer cells |
| O=[N+]([O-])/C=C/c1c[nH]c2ccccc12 [compound 19] | - |  |  |
| CCOC(=O)CCCCCOc1ccc(/C=C/[N+](=O)[O-])cc1 [compound 5] | + (+ at 20 µM) |  |  |
| COc1cccc(/C=C/[N+](=O)[O-])c1 [FootLocker 4, (E)-1-methoxy-3-(2-nitrovinyl)benzene] |  | efficiently disrupt protein-protein interactions at focal adhesion site | compounds showing the most prominent effect on protein-protein interactions at focal adhesion site (FAK/Paxillin): most prominent effect |
| O=[N+]([O-])/C=C/c1cccc(Br)c1 [compound 11] | + (+ at 20 µM) |  |  |
| O=[N+]([O-])/C=C/c1cc(Br)cs1 [compound 1] | ++ (++ indicates displacing effect at 5 µM) |  |  |
| [N-]=[N+]=NCCOCCOCCOCCNC(=O)CCCCCCOc1cccc(/C=C/[N+](=O)[O-])c1 [compound 7] | + (+ at 20 µM) |  |  |
| COc1cccc(/C=C/[N+](=O)[O-])c1 [compound 4] | ++ (++ indicates displacing effect at 5 µM) |  |  |
| O=C/C=C/c1ccc(Cl)cc1 [compound 22] | - |  |  |
| [N-]=[N+]=NCCOCCOCCOCCNC(=O)CCCCCCOc1cccc(C=O)c1 [compound 6] | - |  |  |
| O=[N+]([O-])/C=C/c1ccccc1O [FootLocker 8, (E)-2-(2-nitrovinyl)phenol] |  | efficiently disrupt protein-protein interactions at focal adhesion site |  |

| Compound | Activtiy (activity towards FAK/Paxillin displacement) (FAK/Paxillin) | disruption of protein-protein interactions at focal adhesion site (FAK/Paxillin) | further results |
| --- | --- | --- | --- |
| Cc1ccc(/C=C/[N+](=O)[O-])cc1 [compound 10] | ++ (++ indicates displacing effect at 5 µM) |  |  |
| O=[N+]([O-])/C=C/c1ccccc1O [compound 8] | + (+ at 20 µM) |  |  |
| [N-]=[N+]=NCCOCCOCCOCCNC(=O)CCCCCCOc1cccc(/C=C/[N+](=O)[O-])c1 [FootLocker 7, (E)-N-(2-(2-(2-(2-azidoethoxy)ethoxy)ethoxy)ethyl)-7-(3-(2-nitrovinyl)phenoxy)heptanamide] |  | efficiently disrupt protein-protein interactions at focal adhesion site |  |
| (E)-ethyl 6-(4-(2-nitrovinyl)phenoxy)hexanoate [FootLocker 5] |  | efficiently disrupt protein-protein interactions at focal adhesion site |  |
| C/C(=C\c1ccc(Br)cc1)[N+](=O)[O-] [compound 16] | ++ (++ indicates displacing effect at 5 µM) |  |  |
| O=[N+]([O-])/C=C/c1ccc(F)cc1 [FootLocker 14, (E)-1-fluoro-4-(2-nitrovinyl)benzene] |  | efficiently disrupt protein-protein interactions at focal adhesion site | compounds showing the most prominent effect on protein-protein interactions at focal adhesion site (FAK/Paxillin): most prominent effect; migration of cancer cells / wound closure [1]: retarded the migration of the cancer cells |
| Cc1ccc(/C=C/[N+](=O)[O-])cc1 [FootLocker 10, (E)-1-methyl-4-(2-nitrovinyl) benzene] |  | efficiently disrupt protein-protein interactions at focal adhesion site | compounds showing the most prominent effect on protein-protein interactions at focal adhesion site (FAK/Paxillin): most prominent effect |
| O=[N+]([O-])/C=C/c1ccc(F)cc1 [compound 14] | ++ (++ indicates displacing effect at 5 µM) |  |  |
| O=[N+]([O-])/C=C/c1cccnc1 [compound 18] | + (+ at 20 µM) |  |  |
| O=[N+]([O-])/C=C/c1ccco1 [compound 17] | ++ (++ indicates displacing effect at 5 µM) |  |  |
| O=[N+]([O-])/C=C/c1cccc(Cl)c1 [FootLocker 12, (E)-1-chloro-3-(2-nitrovinyl)benzene] |  | efficiently disrupt protein-protein interactions at focal adhesion site |  |
| O=[N+]([O-])/C=C/c1cccc(Br)c1 [FootLocker 11, (E)-1-bromo-3-(2-nitrovinyl)benzene] |  | efficiently disrupt protein-protein interactions at focal adhesion site |  |
| O=[N+]([O-])/C=C/c1cn(-c2ccccc2)c2ccccc12 [compound 20] | - |  |  |
| O=[N+]([O-])C=Cc1cccnc1 [FootLocker 18, 3-(2-nitro-vinyl)-pyridine] |  | efficiently disrupt protein-protein interactions at focal adhesion site |  |
| O=[N+]([O-])/C=C/c1cccc(O)c1 [compound 3] | ++ (++ indicates displacing effect at 5 µM) |  |  |
| Nc1ccc(SC(C[N+](=O)[O-])c2ccc(Cl)cc2)cc1 (stereo not shown) [compound 2] | ++ (++ indicates displacing effect at 5 µM) |  |  |
| O=[N+]([O-])C=Cc1ccco1 [FootLocker 17, 2-(2-Nitrovinyl)-furan] |  | efficiently disrupt protein-protein interactions at focal adhesion site | compounds showing the most prominent effect on protein-protein interactions at focal adhesion site (FAK/Paxillin): most prominent effect |

Source: patent EP2982368A1, “Small molecule compounds displacing focal adhesion core components” (Universität Konstanz, priority 2014, dated 2016)
